{"source": "patent US9636379B2", "about": "“Compositions and methods for treating pruritus” (Washington University, priority 2007, dated 2017)", "key": {"NMBR/GRPR": {"test_system": "NMBR/GRPR", "assay_type": "in vivo", "details": "NMBR/GRPR double knockout mice; for response to i.d. pruritogens: i.d. in 50 μl; for response to intrathecal bombesin-like peptides: GRP (1 nM), Bombesin (0.05 nM), NMB (2 nM)", "protocol": "FIG. 44 depicts the itch behavior of NMBR/GRPR double knockout mice in response to 3 different bombesin-like peptides. […] GKO, GRPR mutant mice; DKO, NMBR/GRPR double KO mice.\n(A), (C), (E), (G) and (I) are time course curve, while (B), (D), (F), (H) and (J) represent the total value comparisons from the same experiment. *p<0.05, **p<0.01; One-way ANOVA followed by Newman-Keuls post hoc test was used in all statistical analysis.\nHistamine was injected i.d. in 50 μl at 20 μg/mouse. Compound 48/80 was injected i.d. in 50 μl at 20 μg/mouse. ET-1 was injected i.d. in 50 μl at 1 ng/mouse. […] Serotonin (5-HT) was injected i.d. in 50 μl at 1 1 nmol/μl."}, "5-HT fibers": {"test_system": "5-HT fibers", "assay": "Morphine-induced scratching after 5,7-DHT", "assay_type": "in vivo, mice", "details": "vs saline vehicle", "description": "Repeated measures analysis of variance (ANOVA); *P<0.05, n=5-11."}, "GRPR [1]": {"biological_target": "T1, GRPR (Mus musculus, UniProt P21729)", "T1 construct": "GRP acts through spinal GRPR to mediate the transmission of information that drives scratching behavior; endogenous in cells; host or cells: living mice (C57BL/6J / wild-type littermates), spinal dorsal horn neurons reached by intrathecal injection", "T1 sequence (P21729 whole entry)": "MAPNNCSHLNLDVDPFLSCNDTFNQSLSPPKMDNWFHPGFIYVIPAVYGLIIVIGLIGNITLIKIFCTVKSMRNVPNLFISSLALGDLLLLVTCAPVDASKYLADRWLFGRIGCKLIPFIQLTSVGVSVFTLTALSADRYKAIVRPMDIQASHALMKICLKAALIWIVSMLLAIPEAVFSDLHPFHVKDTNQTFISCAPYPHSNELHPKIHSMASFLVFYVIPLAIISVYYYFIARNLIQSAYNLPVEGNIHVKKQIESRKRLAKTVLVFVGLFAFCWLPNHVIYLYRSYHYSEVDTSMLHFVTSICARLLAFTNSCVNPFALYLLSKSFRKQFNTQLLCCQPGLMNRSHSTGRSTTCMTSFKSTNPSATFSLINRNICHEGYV", "assay": "Scratching behavior after intrathecal injection of GRPR agonist GRP18-27", "assay_type": "in vivo, mice", "protocol": "(§1) FIG. 7A-E depicts graphs showing the effect of GRPR agonist and antagonist on scratching behavior. (A) Scratching behavior is monitored after intrathecal (i.t.) injection of GRP18-27 (0.03, 0.1 or 1.0 nmol/5 μl). GRP18-27 induced dose-dependent scratching behavior in wild-type mice (n=7; open circles). […] ANOVA; **P<0.01. […] ANOVA; *P<0.05.\n(§2) To determine whether an activation of GRPR in the spinal cord may facilitate the transmission of itch signals, which would subsequently result in increased scratching behavior, the GRPR agonist GRP18-27 was intrathecally administered (Ladenheim et al., 1996)."}, "GRPR [2]": {"test_system": "GRPR", "assay": "Scratching behavior after intrathecal injection of GRPR agonist GRP18-27", "assay_type": "in vivo, mice", "details": "GRPR mutant mice compared with wild-type", "protocol": "as §1, §2"}, "VR1 vanilloid receptor [3]": {"biological_target": "T2, VR1 vanilloid receptor (Mus musculus, UniProt Q704Y3)", "T2 sequence (Q704Y3 whole entry)": "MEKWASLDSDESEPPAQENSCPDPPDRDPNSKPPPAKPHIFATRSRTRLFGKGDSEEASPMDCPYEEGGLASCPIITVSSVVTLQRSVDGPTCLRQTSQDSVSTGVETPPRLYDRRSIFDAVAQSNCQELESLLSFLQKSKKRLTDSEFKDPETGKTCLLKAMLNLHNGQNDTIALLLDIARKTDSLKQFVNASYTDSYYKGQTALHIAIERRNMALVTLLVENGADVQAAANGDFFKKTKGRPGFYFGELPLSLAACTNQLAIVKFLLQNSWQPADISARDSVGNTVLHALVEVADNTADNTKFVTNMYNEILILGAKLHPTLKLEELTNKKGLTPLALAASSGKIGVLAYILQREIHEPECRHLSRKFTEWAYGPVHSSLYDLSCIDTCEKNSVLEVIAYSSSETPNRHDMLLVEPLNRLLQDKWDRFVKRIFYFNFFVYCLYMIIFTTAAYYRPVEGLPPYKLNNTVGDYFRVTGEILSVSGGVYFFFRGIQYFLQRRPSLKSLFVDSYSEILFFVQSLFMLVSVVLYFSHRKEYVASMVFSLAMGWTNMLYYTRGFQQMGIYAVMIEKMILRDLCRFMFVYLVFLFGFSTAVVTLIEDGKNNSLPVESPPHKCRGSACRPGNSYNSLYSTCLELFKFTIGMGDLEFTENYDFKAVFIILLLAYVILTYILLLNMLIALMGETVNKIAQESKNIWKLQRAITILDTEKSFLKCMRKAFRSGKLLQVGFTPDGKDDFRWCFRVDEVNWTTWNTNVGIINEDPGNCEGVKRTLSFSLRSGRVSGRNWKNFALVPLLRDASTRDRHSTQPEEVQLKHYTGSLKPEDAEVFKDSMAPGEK"}, "VR1 vanilloid receptor [4]": {"biological_target": "T2, VR1 vanilloid receptor", "assay": "Depletion of primary fibers by intrathecal resiniferatoxin (immunocytochemistry)", "assay_type": "in vivo, mice", "design": "An approximate 80% of GRP+ neurons express TRPV1, a vanilloid receptor important for detecting thermal and chemical stimuli in the DRGs; endogenous in cells; host or cells: living mice, TRPV1+ primary afferent fibers (intrathecal RTX)", "excerpt": "FIG. 32A-L depicts micrographs showing that peptidergic but not non-peptidergic fibers were depleted by resiniferatoxin (RTX) treatment. […] The IB4 positive non-peptidergic fibers remain the same after RTX treatment (C) compared with the control group (D). […] GRP+ fibers are almost lost in the RTX treated group (I) compared with the control group (J). TRPV1 staining is lost after RTX treatment (K) compared to the control group (L).\nAn approximate 80% of GRP+ neurons express TRPV1, a vanilloid receptor important for detecting thermal and chemical stimuli in the DRGs (FIG. 31). […] Non-peptidergic primary fibers labeled by IB4-FITC are normal (FIG. 32C, D). […] Motor function is not affected by the depletion of TRPV1+ primary fibers (FIG. 33B).\nMice were given resiniferatoxin (Sigma, 25 ng/5 ul) or vehicle intrathecally under isoflurane-induced anesthesia. The behavior was tested 3-5 days later."}, "NMBR": {"biological_target": "T3, NMBR (Mus musculus, UniProt O54799)", "T3 construct": "NMBR is expressed in the most superficial layer of the dorsal spinal cord; endogenous in cells; host or cells: living wild-type mice, spinal cord (intrathecal injection)", "T3 sequence (O54799 1-390)": "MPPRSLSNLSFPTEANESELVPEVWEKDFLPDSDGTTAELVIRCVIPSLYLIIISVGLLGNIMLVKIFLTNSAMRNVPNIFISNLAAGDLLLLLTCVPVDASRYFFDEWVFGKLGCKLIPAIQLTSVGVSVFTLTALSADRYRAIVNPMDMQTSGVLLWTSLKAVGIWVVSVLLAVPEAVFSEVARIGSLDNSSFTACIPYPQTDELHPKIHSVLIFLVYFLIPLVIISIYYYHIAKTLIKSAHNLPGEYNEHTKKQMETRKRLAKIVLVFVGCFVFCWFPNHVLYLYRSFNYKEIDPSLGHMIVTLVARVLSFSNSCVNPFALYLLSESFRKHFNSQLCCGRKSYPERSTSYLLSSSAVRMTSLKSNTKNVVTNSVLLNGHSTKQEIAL", "assay": "Effect of NMBR antagonist on NMB-, GRP- and chloroquine-evoked scratching", "assay_type": "in vivo, mice", "protocol": "(B) Dose response experiment depicting the NMB-evoked scratching behavior in wild type mice measured over 30 minutes after injection with 1 and 2 nmol of PD168268.\n(A) Number of scratches over time. (B) Comparison of cumulative number of scratches of the results shown in (A). PD168268 was injected at 2 nmol/mouse 10 min before GRP 1 nmol/mouse. p<0.01 (p=0.0072), t test, when the data in first 5 min was compared.\n(A) Number of scratches over time. (B) Comparison of cumulative number of scratches of the results shown in (A). […] One-way ANOVA followed by Newman-Keuls post hoc test."}, "GRPR [5]": {"test_system": "GRPR", "assay_type": "in vivo", "details": "GRPR mutant mice compared to wild-type mice", "excerpt": "All data are presented as means±s.e.m.\nFIG. 17A-C depicts scratching behavior induced by i.d. injection of histamine, endothelin-1 or 5-HT in GRPR mutant (black bars) and wild-type mice (white bars).\nTo ascertain whether GRPR is required for itch sensation, we studied the effects of several pruritogenic agents in GRPR mutant mice and wild-type mice."}, "GRPR [6]": {"biological_target": "T1, GRPR", "assay": "Scratching induced by i.d. pruritogenic agents after i.t. GRPR antagonist", "assay_type": "in vivo, mice", "details": "i.t. antagonist 10 min before i.d. injection of each pruritogenic agent; vs saline control"}, "GRPR [7]": {"biological_target": "T1, GRPR", "design": "species or system mice", "details": "in vivo"}, "GRPR [8]": {"biological_target": "T1, GRPR", "assay_type": "in vivo, mice"}, "[9]": {"details": "three days after i.t. 25 ng/5 μl"}, "[10]": {"details": "antagonist 1.0 nmol i.t. vs vehicle"}}, "note": "Where no end group is shown, it is not given here."}
{"compound": "CCN(CC)CCCC(C)Nc1ccnc2cc(Cl)ccc12", "note": "(stereo not shown) [chloroquine]", "values": [{"measurement": "response to i.d. pruritogens", "setting": "NMBR/GRPR", "result": "deficits"}]}
{"compound": "NCCc1c[nH]c2c(O)cc(O)cc12", "note": "[5,7-DHT]", "values": [{"measurement": "morphine-induced scratching behavior", "setting": "5-HT fibers", "result": "reduces, but does not eliminate scratching behavior"}]}
{"compound": "neuromedin B [NMB]", "values": [{"measurement": "response to intrathecal bombesin-like peptides", "setting": "NMBR/GRPR", "result": "deficits"}]}
{"compound": "GRP18-27: GRPR agonist, intrathecally administered", "values": [{"measurement": "scratching behavior after i.t. GRP18-27", "setting": "GRPR [1]; wild-type mice, i.t. 0.03, 0.1 or 1.0 nmol/5 μl", "result": "increased scratching behavior was found in a dose-dependent manner"}, {"measurement": "number of scratching behaviors after i.t. GRP18-27", "setting": "GRPR [2]", "result": "significantly lower"}]}
{"compound": "C=C(C)[C@]12C[C@@H](C)[C@@]34O[C@](Cc5ccccc5)(O[C@@H]1[C@@H]3C=C(COC(=O)Cc1ccc(O)c(OC)c1)C[C@]1(O)C(=O)C(C)=C[C@@H]41)O2", "note": "[resiniferatoxin]", "values": [{"measurement": "motor function (rotarod)", "setting": "VR1 vanilloid receptor [3]; after RTX treatment", "result": "not affected"}, {"measurement": "tail-flick latency", "setting": "VR1 vanilloid receptor [3]; after RTX treatment", "result": "significantly increased"}, {"measurement": "morphine-induced scratching behavior", "setting": "VR1 vanilloid receptor [3]; mouse, in vivo", "result": "significantly reduced"}, {"measurement": "GRPR expression", "setting": "VR1 vanilloid receptor [4]; after RTX treatment", "result": "remains normal"}, {"measurement": "GRP+ fibers", "setting": "VR1 vanilloid receptor [4]; [9]", "result": "almost depleted"}, {"measurement": "PKCγ (LIIi layer)", "setting": "VR1 vanilloid receptor [4]; [9]", "result": "remains normal"}, {"measurement": "TRPV1 signal", "setting": "VR1 vanilloid receptor [4]; [9]", "result": "almost lost"}, {"measurement": "non-peptidergic primary fibers labeled by IB4-FITC", "setting": "VR1 vanilloid receptor [4]; [9]", "result": "normal"}, {"measurement": "peptidergic fibers labeled by CGRP", "setting": "VR1 vanilloid receptor [4]; [9]", "result": "largely diminished"}]}
{"compound": "C[C@@](Cc1c[nH]c2ccccc12)(NC(=O)Nc1ccc([N+](=O)[O-])cc1)C(=O)NCC1(c2ccccn2)CCCCC1", "note": "[PD168268]", "values": [{"measurement": "GRP-induced scratching behaviors", "setting": "NMBR; 2 nmol/mouse 10 min before GRP 1 nmol/mouse", "result": "inhibited"}, {"measurement": "NMB-induced scratching behaviors", "setting": "NMBR; i.t. 1 or 2 nM/mouse 10 minutes before 2 nM/mouse of NMB, wild type mice", "result": "inhibited"}, {"measurement": "chloroquine-induced scratching behaviors", "setting": "NMBR; i.t. 10 minutes before i.d. chloroquine 200 μg/mouse in 50 μL", "result": "inhibited"}]}
{"compound": "NCCc1c[nH]c2ccc(O)cc12", "note": "[5-HT, serotonin]", "values": [{"measurement": "scratching behavior induced by i.d. injection, GRPR mutant vs wild-type mice", "setting": "GRPR [5]", "result": "normal scratching behaviors"}, {"measurement": "response to i.d. pruritogens", "setting": "NMBR/GRPR", "result": "deficits"}]}
{"compound": "endothelin-1: exerts its pruritic effect through ETA receptors", "values": [{"measurement": "scratching behavior induced by i.d. injection, GRPR mutant vs wild-type mice", "setting": "GRPR [5]", "result": "normal scratching behaviors"}, {"measurement": "response to i.d. pruritogens", "setting": "NMBR/GRPR", "result": "deficits"}]}
{"compound": "D-Phe-6-Bn(6-13)OMe", "values": [{"measurement": "GRP18-27-induced scratching behavior", "setting": "GRPR [1]; i.t. antagonist 1.0 nmol/2.5 μl, GRP18-27 1.0 nmol/2.5 μl, vs vehicle", "result": "significantly inhibited"}, {"measurement": "scratching behavior induced by i.d. pruritogenic agents", "setting": "GRPR [6]", "result": "significant reduction of the scratching behavior"}, {"measurement": "scratching induced by intrathecal morphine", "setting": "GRPR [7]", "result": "significantly blocked"}, {"measurement": "mechanical thresholds", "setting": "GRPR [8]; [10]", "result": "not significantly affected"}, {"measurement": "tailflick latency", "setting": "GRPR [8]; [10]", "result": "comparable"}, {"measurement": "analgesic effect of intrathecal morphine", "setting": "GRPR [8]; morphine 0.3 nmol/5 μl, antagonist 1.0 nmol, vs vehicle", "result": "not significantly affected"}]}
{"compound": "NCCc1c[nH]cn1", "note": "[histamine]", "values": [{"measurement": "scratching behavior induced by i.d. injection, GRPR mutant vs wild-type mice", "setting": "GRPR [5]", "result": "either not significantly affected or modestly reduced"}, {"measurement": "response to i.d. pruritogens", "setting": "NMBR/GRPR", "result": "deficits"}]}
{"compound": "GRP: gastrin-releasing peptide, bombesin-like peptide given intrathecally (VPLPAGGGTVLTKMYPRGNHWAVGHLM; ends and bridges not checked; UniProt P07492 24-50, looked up)", "values": [{"measurement": "response to intrathecal bombesin-like peptides", "setting": "NMBR/GRPR", "result": "deficits"}]}
{"compound": "SLIGRL-NH2", "values": [{"measurement": "scratching behavior induced by i.d. injection, GRPR mutant vs wild-type mice", "setting": "GRPR [5]", "result": "significantly reduced"}]}
